Laboratory results: ChEMBL document CHEMBL1201862, “PubChem BioAssay data set” (2004)
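These data come from cells grown in 96-well plates and exposed to compound for 48 hours at five concentrations. The concentration for 50% growth inhibition is given as GI50.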 Active and inactive are the calls of the source. Cut-off read from the data, not from the text of the source: active = GI50 up to about 1.1 µM and inactive = higher.

Columns and labels:
Test in all cases: NCI-60 cell line screen, 48 h
[1] = system: SF-295
[2] = system: SF-539
[3] = system: TK-10
[4] = system: SK-OV-3
[5] = system: OVCAR-4
[6] = system: K562
[7] = system: SNB-19
[8] = system: Hs-578T
[9] = system: MDA-MB-435
[10] = system: HCT-116
[11] = system: COLO 205
[12] = system: HL-60
[13] = system: DMS-273
[14] = system: SNB-75
[15] = system: HCC 2998
[16] = system: CAKI-1
[17] = system: SK-MEL-2
[18] = system: NCI-H522
[19] = system: DMS-114
[20] = system: MOLT-4

Row | Compound | GI50 [1] | GI50 [2] | GI50 [3] | GI50 [4] | GI50 [5] | GI50 [6] | GI50 [7] | GI50 [8] | GI50 [9] | GI50 [10] | GI50 [11] | GI50 [12] | GI50 [13] | GI50 [14] | GI50 [15] | GI50 [16] | GI50 [17] | GI50 [18] | GI50 [19] | GI50 [20]
1 | CN(C)CCNc1ccc2ncn3c4ccc(O)cc4c(=O)c1c23 | 1.39 µM (inactive) | 0.46 µM (active) | 2.66 µM (inactive) | 1.29 µM (inactive) | 1.04 µM (active) | 0.762 µM (active) | 0.92 µM (active) | 1.18 µM (inactive) | 2.41 µM (inactive) | 0.272 µM (active) | 0.698 µM (active) | 0.647 µM (active) | 0.317 µM (active) | 0.404 µM (active) | 2.12 µM (inactive) | 0.224 µM (active) | 3.79 µM (inactive) | 0.409 µM (active) | 0.526 µM (active) | 0.0258 µM (active)
2 | CS(=O)(=O)OCCN1CCN(C(=O)c2cccc3c(Nc4ccc(S(N)(=O)=O)cc4)c4ccccc4nc23)CC1 | > 100 µM (inactive) | > 100 µM (inactive) | > 100 µM (inactive) | > 100 µM (inactive) | > 100 µM (inactive) | > 51.5 µM (inactive) | > 49.8 µM (inactive) |  |  | > 43.9 µM (inactive) | > 50.8 µM (inactive) | > 63.1 µM (inactive) | > 100 µM (inactive) | > 100 µM (inactive) | > 100 µM (inactive) | > 100 µM (inactive) | > 100 µM (inactive) | > 100 µM (inactive) | > 42.2 µM (inactive) | > 100 µM (inactive)
3 | CCOC(=O)c1sc2c(C(=O)OCC)n3ccccc3c2c1N | 44.6 µM (inactive) | 64.1 µM (inactive) | 52.7 µM (inactive) | 38 µM (inactive) | > 100 µM (inactive) | > 100 µM (inactive) | 31.7 µM (inactive) |  |  | 81.5 µM (inactive) | > 100 µM (inactive) | > 100 µM (inactive) | 53.6 µM (inactive) | 31.7 µM (inactive) | > 100 µM (inactive) | > 100 µM (inactive) | > 100 µM (inactive) | 20.3 µM (inactive) | 40.6 µM (inactive) | > 100 µM (inactive)
4 | O=C1/C(=N\O)C2CCC1C2 (configuration not stated) | > 100 µM (inactive) | > 100 µM (inactive) | > 100 µM (inactive) | > 100 µM (inactive) | > 100 µM (inactive) | > 100 µM (inactive) | > 100 µM (inactive) |  |  | > 100 µM (inactive) | > 100 µM (inactive) | > 100 µM (inactive) | > 100 µM (inactive) | > 100 µM (inactive) | > 100 µM (inactive) | > 100 µM (inactive) | > 100 µM (inactive) | > 100 µM (inactive) | > 100 µM (inactive) | > 100 µM (inactive)
5 | CCN1/C(=C/C(C)=C/c2sc3ccccc3[n+]2CC)Sc2ccccc21 | 0.112 µM (active) | 0.265 µM (active) | 0.324 µM (active) | 0.0769 µM (active) | 0.361 µM (active) | 0.034 µM (active) | 0.0214 µM (active) |  |  | 0.0485 µM (active) | 0.142 µM (active) | 0.0405 µM (active) | 0.064 µM (active) | 0.239 µM (active) | 0.255 µM (active) | 0.203 µM (active) | 0.201 µM (active) | 0.0574 µM (active) | 0.082 µM (active) | 0.0637 µM (active)
